Patent US20020032220A1, “Formulations comprising dissolved paroxetine” (SmithKline Beecham plc, priority 1997, published 2002)
Counter-ions that a name gives are not always drawn.

Assay: Solubility testing of paroxetine hydrochloride in liquid carriers/solvents
Assay type: physicochemical
From the text: Since solid paroxetine forms are in general only sparingly soluble in common solvents, the solvents which are acceptable for use in capsules and for administration to patients need to be subjected to routine solubility testing to confirm that they can maintain an appropriate concentration of paroxetine. In addition, higher loadings of a paroxetine form in a suitable solvent may be achieved by using conventional physical techniques such as heating, shaking and sonication. Alternatively good solvents for paroxetine may be used in small amounts as cosolvents to solubilize paroxetine in liquids that are acceptable for capsule use but in which paroxetine is poorly soluble. Solubilising agents such as the polysorbates, the poloxamers, cyclodextrins, ionic and non-ionic surface active agents, for example Pluronic F60 and Sorbitan esters may also be used to enhance the solubility of paroxetine hydrochloride in solvents acceptable for capsule use but in which paroxetine is poorly soluble.
The term “oral swallow capsule” most suitably denotes a capsule having a maximum volume of 0.86 ml. Preferred capsules according to the present invention have a maximum volume of about 0.45 ml and more especially may lie in the range 0.2 to 0.4 ml, although capsules as small as 0.14 ml are also provided by the invention. […]

Row | SMILES | solubility (oil or lipid, in plant oils (Sunflower, Safflower, Peanut, Soybean, Cottonseed, Corn, Castor, Apricot seed, Olive, Wheat germ, Sesame, Evening Primrose, Canola), Mineral oil, liquid paraffin, Miglyol 810/812, Oleic acid, Ethyl Oleate, Span 80/85, Labrafac lipophile, Plurol Oleique, Peceol) [µg/mL] | solubility (in words) (in Propylene Carbonate, Triacetin, Glycerol, Lauroglycol, Propylene glycol, PEG 300, Glycofurol, PEG 400, IPA, Span 20, Transcutol, Labrasol, Labrafil, Olepal, Glyceryl Linoleate (Maisine 35-1), Pharmasolve)
1 | Fc1ccc([C@@H]2CCNC[C@H]2COc2ccc3c(c2)OCO3)cc1 [paroxetine hydrochloride] | < 10000 | 
2 | Fc1ccc([C@@H]2CCNC[C@H]2COc2ccc3c(c2)OCO3)cc1 [paroxetine, (−)trans isomer of 4-(4′-fluorophenyl)-3-(3′,4′-methylenedioxy-phenoxymethyl)-piperidine] |  | useful solubility
